Reference: patent publication US5891909A, “Amidinohydrazones as protease inhibitors” (3-Dimensional Pharmaceuticals, Inc., priority 1997, dated 1999)
pKi: −log10 of the molar value. Structures can show the parent of a compound that is named as a salt. Where two headings read alike, the source gives them in different places.

Key:
Assay type in all cases: biochemical
[1] = tested on: human plasmin; experiment: Plasmin inhibition (hydrolysis of N-p-Tosyl-Gly-Pro-Lys-p-nitroanilide); settings: at 1.6 μM
From the text: (§1) All buffer salts were obtained from Sigma Chemical Company (St. Louis, Mo.), and were of the highest purity available. The enzyme substrates, N-benzoyl-Phe-Val-Arg-p-nitroanilide (Sigma B7632), N-benzoyl-Ile-Glu-Gly-Arg-p-nitroanilide hydrochloride (Sigma B2291), N-p-Tosyl-Gly-Pro-Lys-p-nitroanilide (Sigma T6140), N-succinyl-Ala-Ala-Pro-Phe-p-nitroanilide (Sigma S7388) and N-CBZ-Val-Gly-Arg-p-nitroanilide (Sigma C7271) were obtained from Sigma. N-succinyl-Ala-Ala-Pro-Arg-p-nitroanilide (BACHEM L-1720) and N-succinyl-Ala-Ala-Pro-Val-p-nitroanilide (BACHEM L-1770) were obtained from BACHEM (King of Prussia, Pa.). […]
(§2) All assays are based on the ability of the test compound to inhibit the enzyme catalyzed hydrolysis of a peptide p-nitroanilide substrate. […] In general, substrate concentrations are lower than the experimentally determined value for Km. […]
(§3) In a typical Ki determination, into each well of a 96 well plate is pipetted 280 μL of substrate solution, 10 μL of test compound solution, and the plate allowed to thermally equilibrate at 37° C. in a Molecular Devices plate reader for >15 minutes. Reactions were initiated by the addition of a 10 μL aliquot of enzyme and the absorbance increase at 405 nm is recorded for 15 minutes. […] The data are fit to a linear regression, and the value of the slope of the line calculated. The inverse of the slope is the experimentally determined Ki value. […]

[2] = tested on: human kidney urokinase; experiment: Urokinase inhibition (hydrolysis of N-CBZ-Val-Gly-Arg-p-nitroanilide); settings: at 1.6 μM
From the text: as §1, §2, §3

[3] = tested on: human leukocyte elastase; experiment: Elastase inhibition (hydrolysis of N-succinyl-Ala-Ala-Pro-Val-p-nitroanilide); settings: at 1.6 μM
From the text: as §1, §2, §3

[4] = tested on: human factor Xa; experiment: Factor Xa inhibition (hydrolysis of N-benzoyl-Ile-Glu-Gly-Arg-p-nitroanilide); settings: at 1.6 μM
From the text: as §1, §2, §3

[5] = tested on: bovine α-chymotrypsin; experiment: Chymotrypsin inhibition (hydrolysis of N-succinyl-Ala-Ala-Pro-Phe-p-nitroanilide); settings: at 1.6 μM
From the text: as §1, §2, §3

[6] = tested on: bovine trypsin; experiment: Trypsin inhibition (hydrolysis of N-benzoyl-Phe-Val-Arg-p-nitroanilide); settings: at 1.6 μM
From the text: as §1, §2, §3

[7] = molecular target: T1, human α-thrombin (Homo sapiens, UniProt P00734); experiment: Thrombin inhibition, Ki determination (hydrolysis of N-succinyl-Ala-Ala-Pro-Arg-p-nitroanilide); settings: pH 7.5, 37° C.
T1 construct: Human α-thrombin, human factor Xa and human plasmin were obtained from Enzyme Research Laboratories; purchased Enzyme Research Laboratories (South Bend, Ind.)
From the text: All buffer salts were obtained from Sigma Chemical Company (St. Louis, Mo.), and were of the highest purity available. The enzyme substrates, N-benzoyl-Phe-Val-Arg-p-nitroanilide (Sigma B7632), N-benzoyl-Ile-Glu-Gly-Arg-p-nitroanilide hydrochloride (Sigma B2291), N-p-Tosyl-Gly-Pro-Lys-p-nitroanilide (Sigma T6140), N-succinyl-Ala-Ala-Pro-Phe-p-nitroanilide (Sigma S7388) and N-CBZ-Val-Gly-Arg-p-nitroanilide (Sigma C7271) were obtained from Sigma.
Human α-thrombin, human factor Xa and human plasmin were obtained from Enzyme Research Laboratories (South Bend, Ind.). Bovine α-chymotrypsin (Sigma C4129), bovine trypsin (Sigma T8642) and human kidney cell urokinase (Sigma U5004) were obtained from Sigma. Human leukocyte elastase was obtained from Elastin Products (Pacific, Mo.).
All assays are based on the ability of the test compound to inhibit the enzyme catalyzed hydrolysis of a peptide p-nitroanilide substrate. […] The final concentrations for each of the substrates is listed below. In general, substrate concentrations are lower than the experimentally determined value for Km. Test compounds are prepared as a 1.0 mg/ml solution in DMSO. Dilutions are prepared in DMSO yielding 8 final concentrations encompassing a 200 fold concentration range. Enzyme solutions are prepared at the concentrations listed below in assay buffer.
Data corresponding to less than 10% of the total substrate hydrolysis were used in the calculations. The ratio of the velocity (rate of change in absorbance as a function of time) for a sample containing no test compound is divided by the velocity of a sample containing test compound, and is plotted as a function of test compound concentration. The data are fit to a linear regression, and the value of the slope of the line calculated. The inverse of the slope is the experimentally determined Ki value.
Thrombin activity was assessed as the ability to hydrolyze the substrate N-succinyl-Ala-Ala-Pro-Arg-p-nitroanilide.

Cc1cc(OCCC=NNC(=N)N)cc(OS(=O)(=O)c2ccccc2Cl)c1 [Example 1, 2-[2-[3-(2-Chlorophenylsulfonyloxy)-5-methylphenoxy]ethyl-1-methylene]hydrazinecarboximidamide hydrochloride]
% Inhibition (plasmin) [1]: 0%
% Inhibition (urokinase) [2]: 0%
% Inhibition (elastase) [3]: 0%
% Inhibition (Factor Xa) [4]: 0%
% Inhibition (chymotrypsin) [5]: 0%
% Inhibition (trypsin) [6]: 0%
pKi ([7]; Table 2, read-out: Ki (thrombin)): 7.89

Cc1cc(OCCC=NNC(=N)N)cc(OS(=O)(=O)c2cccc(Cl)c2Cl)c1 [Example 6, 2-[2-[3-(2,3-Dichlorophenylsulfonyloxy)-5-methylphenoxy]ethyl-1-methylene]hydrazinecarboximidamide nitrate]
pKi ([7]; Table 1, read-out: Thrombin Ki): 7.87

Cc1cc(OCCC=NNC(=N)N)cc(OS(=O)(=O)c2cc(F)ccc2C)c1 [Example 24, 2-[2-[3-(5-Fluoro-2-methylphenylsulfonyloxy)-5-methylphenoxy]ethyl-1-methylene]hydrazinecarboximidamide nitrate]
pKi ([7]; Table 1, read-out: Thrombin Ki): 7.87

Cc1cc(OCCC=NNC(=N)N)cc(OS(=O)(=O)c2ccccc2C(F)(F)F)c1 [Example 2, 2-[2-[5-Methyl-3-(2-trifluoromethylphenylsulfonyloxy)phenoxy]ethyl-1-methylene]hydrazinecarboximidamide nitrate]
pKi ([7]; Table 1, read-out: Thrombin Ki): 8.08
